# Measurements taken from PMC9959048, “Lipidation of Naturally Occurring α-Helical Antimicrobial Peptides as a Promising Strategy for Drug Design” (International Journal of Molecular Sciences, 2023).
# Residues, ends and D or L forms follow the SMILES beside them. *: point of attachment. Palmitoyl = CCCCCCCCCCCCCCCC(=O)*; Decanoyl = CCCCCCCCCC(=O)*; Octanoyl = CCCCCCCC(=O)*
# Key:
# S. aureus PCM2054 = format: cell-based, Staphylococcus aureus; conditions: Mueller–Hinton broth, inoculum 5 × 10^5 CFU/mL, 24 h, 37 °C, absorbance 600 nm, triplicate
# Procedure: (§1) The evaluation of the antimicrobial activity of the synthesized lipopeptides was performed against the following reference bacterial and fungal strains: Staphylococcus aureus PCM 1650, Staphylococcus aureus PCM 2054, Staphylococcus epidermidis PCM 521, Staphylococcus epidermidis PCM 2118, Escherichia coli PCM 2057, Candida albicans PCM 2566, Candida glabrata CCM 8270, Candida krusei CCM 8271, Candida parapsilosis CCM 8260.
# (§2) For the initial cultivation of the bacteria and fungi, Luria-Bertani broth (LB, Biomaxima, Lublin, Poland) and Sabouraud Dextrose broth (SB, Biomaxima, Lublin, Poland) were used, respectively. Antimicrobial properties of the compounds were analyzed through the determination of MIC (minimal inhibitory concentrations) by my means of the serial micro-dilution technique according to the guidelines of Clinical & Laboratory Standard Institute (CLSI) established for aerobic bacteria and yeasts.
# (§3) According to the procedures, Mueller–Hinton broth (MHB) was used as the working medium for the analysis of the bacterial susceptibility, while RPMI-1640 (with L-glutamine, without sodium bicarbonate) growth medium buffered with MOPS (morpholinepropanesulfonic acid) and supplemented with 2% glucose was used for the experiments with the fungi.
# (§4) The experiments were carried out for 24 h at 37 and 35 °C for the bacteria and fungi, respectively. Then, the absorbance was measured at 600 nm for each well of the 96-well plate using a microplate reader (Sunrise TM, Tecan Trading AG, Männedorf, Switzerland). Based on the obtained results, the degree of inhibition of the growth of microorganisms (expressed in %) in the presence of the tested compounds range was determined with respect to the control probes. Inoculated wells without peptide were treated as a positive control (100% growth), and the wells containing working medium only were defined as a negative control (0% growth). All measurements were repeated in triplicate.
# S. epidermidis PCM2118 = format: cell-based, Staphylococcus epidermidis; conditions: Mueller–Hinton broth, inoculum 5 × 10^5 CFU/mL, 24 h, 37 °C, absorbance 600 nm, triplicate
# Procedure: as §1, §2, §3, §4
# S. epidermidis PCM521 = format: cell-based, Staphylococcus epidermidis; conditions: Mueller–Hinton broth, inoculum 5 × 10^5 CFU/mL, 24 h, 37 °C, absorbance 600 nm, triplicate
# Procedure: as §1, §2, §3, §4
# E. coli PCM2057 = format: cell-based, Escherichia coli; conditions: Mueller–Hinton broth, inoculum 5 × 10^5 CFU/mL, 24 h, 37 °C, absorbance 600 nm, triplicate
# Procedure: as §1, §2, §3, §4
# C. albicans PCM2566 = format: cell-based, Candida albicans; conditions: RPMI-1640 with MOPS and 2% glucose, inoculum 5 × 10^3 CFU/mL, 24 h, 35 °C, absorbance 600 nm, triplicate
# Procedure: as §1, §2, §3, §4
# C. glabrata CCM8270 = format: cell-based, Candida glabrata; conditions: RPMI-1640 with MOPS and 2% glucose, inoculum 5 × 10^3 CFU/mL, 24 h, 35 °C, absorbance 600 nm, triplicate
# Procedure: as §1, §2, §3, §4
# C. krusei CCM8271 = format: cell-based, Candida krusei; conditions: RPMI-1640 with MOPS and 2% glucose, inoculum 5 × 10^3 CFU/mL, 24 h, 35 °C, absorbance 600 nm, triplicate
# Procedure: as §1, §2, §3, §4
# C. parapsilosis CCM 8260 = format: cell-based, Candida parapsilosis; conditions: RPMI-1640 with MOPS and 2% glucose, inoculum 5 × 10^3 CFU/mL, 24 h, 35 °C, absorbance 600 nm, triplicate
# Procedure: as §1, §2, §3, §4
# [1] = tested on: human breast cancer cells (MCF-7 line, ATCC); experiment: MTT cytotoxicity assay; format: cell-based; conditions: IC50 against HaCaT divided by IC50 for MCF-7
# Procedure: (§5) The prepared plates were further incubated for 48 h. […] The control cell viability was assumed to be 100%. Three independent experiments were carried out in three repetitions.
# [2] = tested on: human prostate cancer cells (PC3 line, ATCC); experiment: MTT cytotoxicity assay; format: cell-based; conditions: IC50 against HaCaT divided by IC50 for PC3
# Procedure: as §5
# [3] = Dynamic light scattering of lipopeptide assemblies; format: physicochemical; conditions: DLS, sonicated 10 min, incubated 1 h, 90° side scatter; for hydrodynamic diameter: 2 mM in PBS pH 7.4, 25 °C
# Procedure: The hydrodynamic diameters of the lipopeptide nanoaggregates were examined by the Litesizer 500 (Anton-Paar GmbH, Graz, Austria) at 25 °C. The measurements were carried out at various lipopeptide concentrations ranging from 0.5 to 2 mM and from 0.25 to 2 mM, in water and PBS, respectively. Two-fold serial dilutions were used to obtain the sequential concentrations. Each sample was sonicated for 10 min followed by incubation for 1 h at 25 °C and transferred to the polystyrene cuvette. The detector was positioned at a side scatter position (90°). The analysis of the obtained results and report generation was performed with KalliopeTM software (Anton-Paar GmbH, Graz, Austria).
# POPC liposomes = experiment: CD, α-helix content in POPC liposomes; format: physicochemical; conditions: 25 °C, peptide 0.15 mg/mL, 1.3 mM POPC; for α-Helix percentage, POPC: from ellipticity at 222 nm
# Procedure: (§6) Large unilamellar vesicles (LUV) were obtained by extrusion of MLV liposomes through polycarbonate membrane filters with a pore diameter of 100 nm (Whatman International Ltd., Kent, UK) using a mini-extruder (Avanti Polar Lipids, Inc., Alabaster, AL, USA).
# (§7) CD experiments were carried out at 25 °C using a Jasco J-815 spectropolarimeter in the wavelength range 185–260 nm. The concentration of the lipopeptides was 0.15 mg/mL. The CD spectra were recorded in water, PBS (pH 7.4), 1.3 mM POPC and 1.3 mM POPG. The results are plotted as the mean molar ellipticity per one amino acid residue (MRME, deg cm^2 dmol^−1) as a function of the wavelength (nm). Additionally, we performed a conformational analysis of the selected compounds in the presence of S. aureus cells. […] The mixtures were then incubated for 2 h before recording the CD spectra.
# (§8) The percentage of the α-helical structure was calculated based on the mean molar ellipticity at 222 nm using the formula: fH=θ222−3000/−36000−3000·100% where θ222 corresponds to the value of the mean molar ellipticity at a wavelength of 222 nm.
# POPG liposomes = experiment: CD, α-helix content in POPG liposomes; format: physicochemical; conditions: 25 °C, peptide 0.15 mg/mL, 1.3 mM POPG; for α-Helix percentage, POPG: from ellipticity at 222 nm
# Procedure: as §6, §7, §8
# POPG LUVs = experiment: Isothermal titration calorimetry, binding to POPG LUVs; conditions: ITC, 25 °C, 0.05 or 0.07 mM peptide titrated with 1.3 or 1.8 mM POPG LUVs; one set of sites model (C10-LL-I: two sets of sites, first line)
# Procedure: as §6
# The thermodynamic parameters of the interactions of the lipopeptides with POPG and POPC liposomes were determined by isothermal titration calorimetry (ITC). Measurements were performed at 25 °C using an AutoITC microcalorimeter (MicroCal Inc., Northampton, MA, USA) with a 1.4491 mL sample and reference cells. The experiment consisted in the titration of a buffered peptide solution with a concentration of 0.05 and/or 0.07 mM with a buffered solution containing POPG or POPC LUVs with a lipid concentration of 1.3 and 1.8 mM (10.02 µL; 29 injections, 2 µL for the first injection only), as it was described previously. The result of the titration was a thermogram showing a series of peaks corresponding to the titration steps. A titration curve was obtained after integration of the peak areas. The obtained isotherms were fitted to the “one set of sites” or “two sets of sites” models available in the ORIGIN 7.0 (MicroCal Inc., Northampton, MA, USA), which made it possible to determine the enthalpy (ΔH), the binding constant (KITC) and the stoichiometry (N) of the interactions between the lipopeptide and the lipids. The following formula was used to calculate the entropy change (ΔS) and the Gibbs free energy (ΔG): ΔG=−RTln(55.5KITC)=ΔH−TΔS where: factor 55.5 is the molar concentration of water, R is the gas constant (1.986 cal·mol^−1·K^−1), and T is the absolute temperature.
# S. aureus PCM1650 = format: cell-based, Staphylococcus aureus; conditions: Mueller–Hinton broth, inoculum 5 × 10^5 CFU/mL, 24 h, 37 °C, absorbance 600 nm, triplicate
# Procedure: as §1, §2, §3, §4
# S. aureus cells = experiment: TEM of S. aureus cells treated with lipopeptide; format: cell-based, Staphylococcus aureus; conditions: C8-LL-I at 25 µg/mL, 5 × 10^5 CFU/mL, incubated overnight at 37 °C
# Procedure: The cells were centrifuged (8000 rpm, 15 min) and resuspended in fresh media to obtain a high-density cell suspension (5 × 10^5 CFU/mL). […] Afterward, the cells were centrifuged (8000 rpm, 15 min) and washed three times with PBS. The bacterial cells were fixed with 2.5% glutaraldehyde buffered at pH 6.5 with 0.1 M sodium cacodylate (Polysciences, Warrington, PA, USA) for 6 h at room temperature, as described earlier [52]. Additional fixation was performed with a 1% osmium tetroxide solution (Polysciences, Warrington, PA, USA) for 2 h at 4 °C. The cells were centrifuged and resuspended in 0.1 M cacodylate buffer, centrifuged again and dehydrated with ethanol. The bacteria were embedded in Epon 812 resin (Sigma-Aldrich, Darmstadt, Germany) at room temperature. A Leica UC7 ultramicrotome (Wetzlar, Germany) was used to obtain ultra-thin sections (55 nm). As contrasting agents, lead citrate and uranyl acetate were used. Cells were visualized using a Tecnai Spirit BioTWIN (EFI, Hillsboro, OR, USA) microscope at 120 kV.
# fungi Candida spps = experiment: MIC, antifungal activity; format: cell-based; conditions: text summary of Table 1, Candida strains
# Procedure: as §1
# For the initial cultivation of the bacteria and fungi, Luria-Bertani broth (LB, Biomaxima, Lublin, Poland) and Sabouraud Dextrose broth (SB, Biomaxima, Lublin, Poland) were used, respectively. Antimicrobial properties of the compounds were analyzed through the determination of MIC (minimal inhibitory concentrations) by my means of the serial micro-dilution technique according to the guidelines of Clinical & Laboratory Standard Institute (CLSI) established for aerobic bacteria and yeasts. […]
# The experiments were carried out for 24 h at 37 and 35 °C for the bacteria and fungi, respectively. Then, the absorbance was measured at 600 nm for each well of the 96-well plate using a microplate reader (Sunrise TM, Tecan Trading AG, Männedorf, Switzerland). Based on the obtained results, the degree of inhibition of the growth of microorganisms (expressed in %) in the presence of the tested compounds range was determined with respect to the control probes. […]
# [4] = 0.5 mM salt-free aqueous solution, 25 °C
SMILES,"MIC, S. aureus PCM2054 (S. aureus PCM2054) [µg/mL]","MIC, S. epidermidis PCM2118 (S. epidermidis PCM2118) [µg/mL]","MIC, S. epidermidis PCM521 (S. epidermidis PCM521) [µg/mL]","MIC, E. coli PCM2057 (E. coli PCM2057) [µg/mL]","MIC, C. albicans PCM2566 (C. albicans PCM2566) [µg/mL]","MIC, C. glabrata CCM8270 (C. glabrata CCM8270) [µg/mL]","MIC, C. krusei CCM8271 (C. krusei CCM8271) [µg/mL]","MIC, C. parapsilosis CCM 8260 (C. parapsilosis CCM 8260) [µg/mL]",SI MCF-7 [1],SI PC3 [2],"hydrodynamic diameter, peak of highest scattering intensity ([3]; 0.25 mM in PBS pH 7.4, 25 °C) [nm]","hydrodynamic diameter, peak of highest scattering intensity [3, 4] [nm]",hydrodynamic diameter [3] [nm],"θ222/θ208, POPC (POPC liposomes)","α-Helix percentage, POPC (POPC liposomes) [%]","α-Helix percentage, POPG (POPG liposomes) [%]","pKITC, POPG (POPG LUVs)",other results
CCCCCCCCCC(=O)N[C@@H](CCCCN)C(=O)N[C@@H](CCCNC(=N)N)C(=O)N[C@@H](Cc1ccccc1)C(=O)N[C@@H](CCCCN)C(=O)N[C@@H](CCCCN)C(=O)N[C@@H](Cc1ccccc1)C(=O)N[C@@H](Cc1ccccc1)C(=O)N[C@@H](CCCCN)C(=O)N[C@@H](CCCCN)C(=O)N[C@@H](CC(C)C)C(=O)N[C@@H](CCCCN)C(N)=O [C10-ATRA-1] (Decanoyl-KRFKKFFKKLK-NH2),3.9,3.13,3.13,31.25,50,>50,12.5,25,9.47,3.92,2808 ± 1193,284 ± 105,1040 ± 343,0.65,14,17,7.06 ± 0.61,
CCCCCCCC(=O)N[C@H](C(=O)N[C@@H](CC(N)=O)C(=O)N[C@@H](Cc1c[nH]c2ccccc12)C(=O)N[C@@H](CCCCN)C(=O)N[C@@H](CCCCN)C(=O)N[C@H](C(=O)N[C@@H](CC(C)C)C(=O)NCC(=O)N[C@@H](CCCCN)C(=O)N[C@H](C(=O)N[C@H](C(=O)N[C@@H](CCCCN)C(=O)N[C@H](C(=O)N[C@@H](C)C(=O)N[C@@H](CCCCN)C(N)=O)C(C)C)[C@@H](C)CC)[C@@H](C)CC)C(C)C)C(C)C [C8-LL-I] (Octanoyl-VNWKKVLGKIIKVAK-NH2),12.5,6.25,6.25,25,>50,25,12.5,12.5,1.42,0.76,3360 ± 165,404 ± 37,3844 ± 1031,0.85,48,27,3.98 ± 0.06,"MIC, S. aureus PCM1650 (S. aureus PCM1650): 12.5 µg/mL; θ222/θ208, POPG (POPG liposomes): 0.90; effect on S. aureus cells (TEM) (S. aureus cells): induced thinning of the membrane and its disintegration"
CCCCCCCCCCCCCCCC(=O)N[C@@H](CCCCN)C(=O)N[C@@H](CCCNC(=N)N)C(=O)N[C@@H](Cc1ccccc1)C(=O)N[C@@H](CCCCN)C(=O)N[C@@H](CCCCN)C(=O)N[C@@H](Cc1ccccc1)C(=O)N[C@@H](Cc1ccccc1)C(=O)N[C@@H](CCCCN)C(=O)N[C@@H](CCCCN)C(=O)N[C@@H](CC(C)C)C(=O)N[C@@H](CCCCN)C(N)=O [C16-ATRA-1] (Palmitoyl-KRFKKFFKKLK-NH2),>50,12.5,25,>50,2.5,3.13,2.5,3.13,,,,,,,,,,"MIC, antifungal activity (fungi Candida spps): ≤ 3.13 µg/mL"
